Consider 5 molecules from US20260098061A1, “EPHA2-BINDING PENDING PEPTIDE AND COMPOSITION COMPRISING SAME” (PeptiDream Inc., priority 2022, published 2026).

For the assay, the target named is T1, Recombinant Human EphA2 Fc Protein (Homo sapiens, UniProt P29317).
T1 construct: purchased Elabscience
The assay is described as follows: SPR interaction analysis (Biacore T200), kinetics of peptides against EphA2. Particulars: Recombinant Human EphA2 Fc Protein captured by Human Antibody Capture kit; single-cycle kinetics; 25° C.; HBS-P+ buffer with 1% DMSO. In kind it is binding. The method, boiled down:
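On a Biacore T200 at 25° C, Fc-tagged human EphA2 was captured via anti-human antibody; peptides ran as five serial dilutions in HBS-P+ pH 7.4 with 1% DMSO by single-cycle kinetics. Baseline-subtracted data fitted for ka and kd, from which KD was derived.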
In general terms: Surface plasmon resonance follows binding to a sensor surface in real time, without labels.

Bridge positions count the residues as written; N and C are the ends. Square brackets hold non-standard residues; d marks the D form. Peptide text beside a SMILES is read from it. * marks the point of attachment. NH(1-deoxy-D-glucityl) = OC[C@@H](O)[C@@H](O)[C@H](O)[C@@H](O)CN*; Trp(1-Me,7-Cl) = Cn1cc(C[C@H](N)C(=O)O)c2cccc(Cl)c21; dPhe(3-CONH2) = NC(=O)c1cccc(C[C@@H](N)C(=O)O)c1; Trp(1-Me) = Cn1cc(C[C@H](N)C(=O)O)c2ccccc21; NMe3Pal = CN[C@@H](Cc1cccnc1)C(=O)O; NMeF = CN[C@@H](Cc1ccccc1)C(=O)O; hCit = NC(=O)NCCCC[C@H](N)C(=O)O; NMeN = CN[C@@H](CC(N)=O)C(=O)O

In general, Kd refers to the constant that tells how readily two partners part at equilibrium. For the molecule `CC(C)C[C@@H]1NC(=O)[C@H](CC(N)=O)NC(=O)[C@H](Cc2c[nH]cn2)NC(=O)[C@H](Cc2ccccc2)NC(=O)CSC[C@@H](C(=O)NCC(N)=O)NC(=O)[C@H](Cc2cn(C)c3ccccc23)NC(=O)[C@H](CCCCNC(N)=O)NC(=O)[C@H](Cc2cn(C)c3ccccc23)NC(=O)[C@H](Cc2ccccc2)N(C)C(=O)[C@H](CO)NC1=O` [PDC_EphA2-00022606, F-H-N-L-S-MeF-W1Me-Hcit-W1Me-C-G-NH2] ({CH2CO}-FHNLS[NMeF][Trp(1-Me)][hCit][Trp(1-Me)]CG-NH2; thioether N-10), the Kd fell in the range of 10 to 100 nM. As to `CC(=O)NCCCC[C@H](NC(=O)[C@@H]1CSCC(=O)N[C@@H](Cc2ccccc2)C(=O)N[C@@H](Cc2c[nH]cn2)C(=O)N[C@@H](CC(N)=O)C(=O)N[C@@H](CC(C)C)C(=O)N[C@@H](CO)C(=O)N(C)[C@@H](Cc2ccccc2)C(=O)N[C@@H](Cc2cn(C)c3ccccc23)C(=O)N[C@@H](CCCCNC(N)=O)C(=O)N[C@@H](Cc2cn(C)c3ccccc23)C(=O)N1)C(N)=O` [PDC_EphA2-00022607, F-H-N-L-S-MeF-W1Me-Hcit-W1Me-C-KAc-NH2] ({CH2CO}-FHNLS[NMeF][Trp(1-Me)][hCit][Trp(1-Me)]CK(Ac)-NH2; thioether N-10), the Kd fell in the range of 10 to 100 nM. For `CC(=O)NCCCC[C@@H](NC(=O)[C@@H]1CSCC(=O)N[C@@H](Cc2ccccc2)C(=O)N[C@@H](Cc2c[nH]cn2)C(=O)N[C@@H](CC(N)=O)C(=O)N[C@@H](CC(C)C)C(=O)N[C@@H](CO)C(=O)N(C)[C@@H](Cc2ccccc2)C(=O)N[C@@H](Cc2cn(C)c3ccccc23)C(=O)N[C@@H](CCCCNC(N)=O)C(=O)N[C@@H](Cc2cn(C)c3ccccc23)C(=O)N1)C(N)=O` [PDC_EphA2-00022608, F-H-N-L-S-MeF-W1Me-Hcit-W1Me-C-dkAc-NH2] ({CH2CO}-FHNLS[NMeF][Trp(1-Me)][hCit][Trp(1-Me)]C[dK](Ac)-NH2; thioether N-10) the value was 10 to 100 nM; for `CC(C)C[C@@H]1NC(=O)[C@H](CC(N)=O)NC(=O)[C@H](Cc2cccnc2)N(C)C(=O)[C@@H](Cc2cccc(C(N)=O)c2)NC(=O)CSC[C@@H](C(N)=O)NC(=O)[C@H](CC(N)=O)NC(=O)[C@H]([C@@H](C)O)NC(=O)[C@H](Cc2cn(C)c3ccccc23)NC(=O)[C@H](CCC(=O)NC[C@H](O)[C@@H](O)[C@H](O)[C@H](O)CO)NC(=O)[C@H](Cc2cn(C)c3c(Cl)cccc23)NC(=O)[C@H](Cc2ccccc2)N(C)C(=O)[C@H](CC(N)=O)NC1=O` [PDC_EphA2-00026424, df3CON-Me3Py-N-L-N-Me3Py-W1Me7Cl-Qglucamine-W1Me-T-N-C-NH2] ({CH2CO}-[dPhe(3-CONH2)][NMe3Pal]NLN[NMeF][Trp(1-Me,7-Cl)]E(NH(1-deoxy-D-glucityl))[Trp(1-Me)]TNC-NH2; thioether N-12), less than 1 nM.

With `CC(C)C[C@@H]1NC(=O)[C@H](CC(N)=O)NC(=O)[C@H](Cc2cccnc2)N(C)C(=O)[C@@H](Cc2cccc(C(N)=O)c2)NC(=O)CSC[C@@H](C(N)=O)NC(=O)[C@H](CC(N)=O)NC(=O)[C@H]([C@@H](C)O)NC(=O)[C@H](Cc2cn(C)c3ccccc23)NC(=O)[C@H](CCC(=O)NC[C@H](O)[C@@H](O)[C@H](O)[C@H](O)CO)NC(=O)[C@H](Cc2cn(C)c3c(Cl)cccc23)NC(=O)[C@H](CC(N)=O)N(C)C(=O)[C@H](CC(N)=O)NC1=O` [PDC_EphA2-00026425, df3CON-Me3Py-N-L-N-MeN-W1Me7Cl-Qglucamine-W1Me-T-N-C-NH2] ({CH2CO}-[dPhe(3-CONH2)][NMe3Pal]NLN[NMeN][Trp(1-Me,7-Cl)]E(NH(1-deoxy-D-glucityl))[Trp(1-Me)]TNC-NH2; thioether N-12), the Kd was less than 1 nM.
